Measured values taken from patent US6559101B2, “N- (5, 7-dimethoxy [1, 2, 4] triazolo [1, 5-a] pyrimidin-2-yl) arylsulfonamide compounds and their use as herbicides” (Dow AgroSciences LLC, priority 2000, dated 2003).

How the values were obtained:
Type in all cases: in vivo
[1] = tested on: cocklebur (Xanthium strumarium); test: Postemergence herbicidal activity; details: scored after 2 weeks, 0 no injury, 100 complete kill
Experimental: (§1) Seeds of the desired test plant species were planted in Grace-Sierra MetroMix® 306 planting mixture, which typically has a pH of 6.0 to 6.8 and an organic matter content of about 30 percent, in plastic pots with a surface area of 64 square centimeters. When required to ensure good germination and healthy plants, a fungicide treatment and/or other chemical or physical treatment was applied. The plants were grown for 7-21 days in a greenhouse with an approximately 15 hr photoperiod which was maintained at about 23-29° C. during the day and 22-28° C. during the night. Nutrients and water were added on a regular basis and supplemental lighting was provided with overhead metal halide 1000 Watt lamps as necessary. The plants were employed for testing when they reached the first or second true leaf stage. A weighed amount of each test compound, determined by the highest rate to be tested, was placed in a 20 mL glass vial and was dissolved in 4 mL of a 97:3 v/v (volume/volume) mixture of acetone and dimethyl sulfoxide to obtain concentrated stock solutions. […] The concentrated stock solutions obtained were diluted with an aqueous mixture containing acetone, water, iso-propyl alcohol, dimethyl sulfoxide, Atplus 411F crop oil concentrate, and Triton X-155 surfactant (methylenebisdiamyl phenoxy polyethoxy ethanol) in a 48.5:39:10:1.5:1.0:0.02 v/v ratio to obtain spray solutions of known concentration. The solutions containing the highest concentration to be tested were prepared by diluting 2 mL aliquots of the stock solution with 13 mL of the mixture and lower concentrations were prepared by dilution of appropriate smaller portions of the stock solution. Approximately 1.5 mL aliquots of each solution of known concentration were sprayed evenly onto each of the test plant pots using a Devilbiss atomizer driven by compressed air pressure of 2 to 4 psi (140 to 280 kiloPascals) to obtain thorough coverage of each plant. Control plants were sprayed in the same manner with the aqueous mixture. In this test an application rate of 1 ppm results in the application of approximately 1 g/ha. The treated plants and control plants were placed in a greenhouse as described above and watered by sub-irrigation to prevent wash-off of the test compounds. After 2 weeks the condition of the test plants as compared with that of the untreated plants was determined visually and scored on a scale of 0 to 100 percent where 0 corresponds to no injury and 100 corresponds to complete kill.

[2] = tested on: chickweed (Stellaria media); test: Postemergence herbicidal activity; details: scored after 2 weeks, 0 no injury, 100 complete kill
Experimental: as §1

viola (Viola tricolor) = test: Postemergence herbicidal activity; details: scored after 2 weeks, 0 no injury, 100 complete kill
Experimental: as §1

[3] = tested on: blackgrass (Alopecurus myosuroides); test: Postemergence herbicidal activity; details: scored after 2 weeks, 0 no injury, 100 complete kill
Experimental: as §1

[4] = tested on: velvetleaf (Abutilion theophrasti); test: Postemergence herbicidal activity; details: scored after 2 weeks, 0 no injury, 100 complete kill
Experimental: as §1

wild oats (Avena fatua) [5] = test: Postemergence herbicidal activity; details: scored after 2 weeks, 0 no injury, 100 complete kill
Experimental: as §1

[6] = tested on: Rox orange sorghum (Sorghum bicolor); test: Postemergence herbicidal activity; details: scored after 2 weeks, 0 no injury, 100 complete kill
Experimental: as §1

[7] = tested on: wild buckwheat (Polygonum convolvulus); test: Postemergence herbicidal activity; details: scored after 2 weeks, 0 no injury, 100 complete kill
Experimental: as §1

[8] = tested on: lambsquarters (Chenopodium album); test: Postemergence herbicidal activity; details: scored after 2 weeks, 0 no injury, 100 complete kill
Experimental: as §1

[9] = tested on: pigweed (Amaranthus retroflexus); test: Postemergence herbicidal activity; details: scored after 2 weeks, 0 no injury, 100 complete kill
Experimental: as §1

[10] = tested on: giant foxtail (Setaria faberi); test: Postemergence herbicidal activity; details: scored after 2 weeks, 0 no injury, 100 complete kill
Experimental: as §1

[11] = tested on: barnyardgrass (Echinochloa crus-galli); test: Preemergence herbicidal activity; details: scored after 3 weeks, 0 no injury, 100 complete kill or no germination
Experimental: (§2) The soil matrix was contained in plastic pots with a surface area of 161 square centimeters. When required to ensure good germination and healthy plants, a fungicide treatment and/or other chemical or physical treatment was applied. A weighed amount, determined by the highest rate to be tested, of each test compound was placed in a 20 mL glass vial and was dissolved in 8 mL of a 97:3 v/v (volume/volume) mixture of acetone and dimethyl sulfoxide to obtain concentrated stock solutions. […] The stock solutions obtained were diluted with a 99.9:0.1 mixture of water and Tween® 155 surfactant (ethoxylated sorbitan fatty acid ester) to obtain application solutions of known concentration. The solutions containing the highest concentration to be tested were prepared by diluting 4 mL aliquots of the stock solution with 8.5 mL of the mixture and lower concentrations were prepared by dilution of appropriate smaller portions of the stock solution. A 2.5 mL aliquot of each solution of known concentration was sprayed evenly onto the soil of each seeded pot using a Cornwall 5.0 mL glass syringe fitted with a TeeJet TN-3 hollow cone nozzle to obtain thorough coverage of the soil in each pot. Control pots were sprayed in the same manner with the aqueous mixture. A highest application rate of 4.48 kg/ha is achieved when 50 mg of test compound is employed. The treated pots and control pots were placed in a greenhouse with an approximately 15 hr photoperiod which was maintained at about 23-29° C. during the day and 22-28° C. during the night. Nutrients and water were added on a regular basis and supplemental lighting was provided with overhead metal halide 1000 Watt lamps as necessary. The water was added by top-irrigation. After 3 weeks the condition of the test plants that germinated and grew as compared with that of the untreated plants that germinated and grew was determined visually and scored on a scale of 0 to 100 percent where 0 corresponds to no injury and 100 corresponds to complete kill or no germination.

[12] = tested on: cocklebur (Xanthium strumarium); test: Preemergence herbicidal activity; details: scored after 3 weeks, 0 no injury, 100 complete kill or no germination
Experimental: as §2

[13] = tested on: morningglory (Ipomoea hederacea); test: Preemergence herbicidal activity; details: scored after 3 weeks, 0 no injury, 100 complete kill or no germination
Experimental: as §2

[14] = tested on: blackgrass (Alopecurus myosuroides); test: Preemergence herbicidal activity; details: scored after 3 weeks, 0 no injury, 100 complete kill or no germination
Experimental: as §2

[15] = tested on: velvetleaf (Abutilion theophrasti); test: Preemergence herbicidal activity; details: scored after 3 weeks, 0 no injury, 100 complete kill or no germination
Experimental: as §2

wild oats (Avena fatua) [16] = test: Preemergence herbicidal activity; details: scored after 3 weeks, 0 no injury, 100 complete kill or no germination
Experimental: as §2

[17] = tested on: crabgrass (Digitaria sanguinalis); test: Preemergence herbicidal activity; details: scored after 3 weeks, 0 no injury, 100 complete kill or no germination
Experimental: as §2

[18] = tested on: Rox orange sorghum (Sorghum bicolor); test: Preemergence herbicidal activity; details: scored after 3 weeks, 0 no injury, 100 complete kill or no germination
Experimental: as §2

[19] = tested on: wild poinsettia (Euphorbia heterophylla); test: Preemergence herbicidal activity; details: scored after 3 weeks, 0 no injury, 100 complete kill or no germination
Experimental: as §2

[20] = tested on: pigweed (Amaranthus retroflexus); test: Preemergence herbicidal activity; details: scored after 3 weeks, 0 no injury, 100 complete kill or no germination
Experimental: as §2

[21] = tested on: giant foxtail (Setaria faberi); test: Preemergence herbicidal activity; details: scored after 3 weeks, 0 no injury, 100 complete kill or no germination
Experimental: as §2

[22] = tested on: morningglory (Ipomoea hederacea); test: Postemergence herbicidal activity; details: scored after 2 weeks, 0 no injury, 100 complete kill
Experimental: as §1

COc1cc(OC)n2nc(NS(=O)(=O)c3c(OC)cccc3OC)nc2n1 [Compound 2]
Postemergence herbicidal activity XANST ([1]; 15.6 ppm): 70% | Postemergence herbicidal activity STEME ([2]; 15.6 ppm): 98% | Postemergence herbicidal activity VIOTR (viola (Viola tricolor); 15.6 ppm): 90% | Postemergence herbicidal activity ALOMY ([3]; 15.6 ppm): 98% | Postemergence herbicidal activity ABUTH ([4]; 15.6 ppm): 95% | Postemergence herbicidal activity AVEFA (wild oats (Avena fatua) [5]; 15.6 ppm): 98% | Postemergence herbicidal activity SORBI ([6]; 15.6 ppm): 100% | Postemergence herbicidal activity POLCO ([7]; 15.6 ppm): 98% | Postemergence herbicidal activity CHEAL ([8]; 15.6 ppm): 90% | Postemergence herbicidal activity AMARE ([9]; 15.6 ppm): 95% | Postemergence herbicidal activity SETFA ([10]; 15.6 ppm): 98% | Preemergence herbicidal activity ECHCG ([11]; 17.5 g/Ha): 60% | Preemergence herbicidal activity XANST ([12]; 17.5 g/Ha): 80% | Preemergence herbicidal activity IPOHE ([13]; 17.5 g/Ha): 85% | Preemergence herbicidal activity ALOMY ([14]; 17.5 g/Ha): 100% | Preemergence herbicidal activity ABUTH ([15]; 17.5 g/Ha): 75% | Preemergence herbicidal activity AVEFA (wild oats (Avena fatua) [16]; 17.5 g/Ha): 75% | Preemergence herbicidal activity DIGSA ([17]; 17.5 g/Ha): 80% | Preemergence herbicidal activity SORBI ([18]; 17.5 g/Ha): 95% | Preemergence herbicidal activity EPHHL ([19]; 17.5 g/Ha): 85% | Preemergence herbicidal activity AMARE ([20]; 17.5 g/Ha): 100% | Preemergence herbicidal activity SETFA ([21]; 17.5 g/Ha): 100%

COc1cc(OC)n2nc(NS(=O)(=O)c3c(OCCF)cccc3C(F)(F)F)nc2n1 [Compound 3, N-(5,7-dimethoxy[1,2,4]triazolo[1,5-a]pyrimidin-2-yl)-2-(2-fluoroethoxy)-6-(trifluoromethyl)benzenesulfonamide]
Postemergence herbicidal activity XANST ([1]; 3.9 ppm): 75% | Postemergence herbicidal activity STEME ([2]; 3.9 ppm): 95% | Postemergence herbicidal activity VIOTR (viola (Viola tricolor); 3.9 ppm): 90% | Postemergence herbicidal activity ALOMY ([3]; 3.9 ppm): 95% | Postemergence herbicidal activity ABUTH ([4]; 3.9 ppm): 80% | Postemergence herbicidal activity AVEFA (wild oats (Avena fatua) [5]; 3.9 ppm): 70% | Postemergence herbicidal activity SORBI ([6]; 3.9 ppm): 70% | Postemergence herbicidal activity POLCO ([7]; 3.9 ppm): 98% | Postemergence herbicidal activity CHEAL ([8]; 3.9 ppm): 95% | Postemergence herbicidal activity AMARE ([9]; 3.9 ppm): 98% | Postemergence herbicidal activity SETFA ([10]; 3.9 ppm): 98% | Preemergence herbicidal activity ECHCG ([11]; 17.5 g/Ha): 100% | Preemergence herbicidal activity XANST ([12]; 17.5 g/Ha): 100% | Preemergence herbicidal activity IPOHE ([13]; 17.5 g/Ha): 98% | Preemergence herbicidal activity ALOMY ([14]; 17.5 g/Ha): 100% | Preemergence herbicidal activity ABUTH ([15]; 17.5 g/Ha): 100% | Preemergence herbicidal activity AVEFA (wild oats (Avena fatua) [16]; 17.5 g/Ha): 95% | Preemergence herbicidal activity DIGSA ([17]; 17.5 g/Ha): 100% | Preemergence herbicidal activity SORBI ([18]; 17.5 g/Ha): 100% | Preemergence herbicidal activity EPHHL ([19]; 17.5 g/Ha): 90% | Preemergence herbicidal activity AMARE ([20]; 17.5 g/Ha): 100% | Preemergence herbicidal activity SETFA ([21]; 17.5 g/Ha): 100%

COc1cc(OC)n2nc(NS(=O)(=O)c3cc(C)ccc3OC)nc2n1 [Compound 6]
Postemergence herbicidal activity XANST ([1]; 31.3 ppm): 95% | Postemergence herbicidal activity STEME ([2]; 31.3 ppm): 98% | Postemergence herbicidal activity VIOTR (viola (Viola tricolor); 31.3 ppm): 90% | Postemergence herbicidal activity IPOHE ([22]; 31.3 ppm): 70% | Postemergence herbicidal activity ALOMY ([3]; 31.3 ppm): 90% | Postemergence herbicidal activity ABUTH ([4]; 31.3 ppm): 95% | Postemergence herbicidal activity AVEFA (wild oats (Avena fatua) [5]; 31.3 ppm): 95% | Postemergence herbicidal activity SORBI ([6]; 31.3 ppm): 95% | Postemergence herbicidal activity POLCO ([7]; 31.3 ppm): 98% | Postemergence herbicidal activity CHEAL ([8]; 31.3 ppm): 95% | Postemergence herbicidal activity AMARE ([9]; 31.3 ppm): 100% | Postemergence herbicidal activity SETFA ([10]; 31.3 ppm): 95% | Preemergence herbicidal activity ECHCG ([11]; 35 g/Ha): 90% | Preemergence herbicidal activity XANST ([12]; 35 g/Ha): 70% | Preemergence herbicidal activity IPOHE ([13]; 35 g/Ha): 50% | Preemergence herbicidal activity ALOMY ([14]; 35 g/Ha): 100% | Preemergence herbicidal activity ABUTH ([15]; 35 g/Ha): 98% | Preemergence herbicidal activity AVEFA (wild oats (Avena fatua) [16]; 35 g/Ha): 90% | Preemergence herbicidal activity DIGSA ([17]; 35 g/Ha): 100% | Preemergence herbicidal activity SORBI ([18]; 35 g/Ha): 95% | Preemergence herbicidal activity EPHHL ([19]; 35 g/Ha): 80% | Preemergence herbicidal activity AMARE ([20]; 35 g/Ha): 98% | Preemergence herbicidal activity SETFA ([21]; 35 g/Ha): 98%

COC(=O)c1cccc(OC)c1S(=O)(=O)Nc1nc2nc(OC)cc(OC)n2n1 [Compound 7]
Postemergence herbicidal activity XANST ([1]; 62.5 ppm): 40% | Postemergence herbicidal activity STEME ([2]; 62.5 ppm): 90% | Postemergence herbicidal activity VIOTR (viola (Viola tricolor); 62.5 ppm): 80% | Postemergence herbicidal activity IPOHE ([22]; 62.5 ppm): 80% | Postemergence herbicidal activity ALOMY ([3]; 62.5 ppm): 95% | Postemergence herbicidal activity ABUTH ([4]; 62.5 ppm): 70% | Postemergence herbicidal activity AVEFA (wild oats (Avena fatua) [5]; 62.5 ppm): 90% | Postemergence herbicidal activity SORBI ([6]; 62.5 ppm): 80% | Postemergence herbicidal activity POLCO ([7]; 62.5 ppm): 85% | Postemergence herbicidal activity AMARE ([9]; 62.5 ppm): 95% | Postemergence herbicidal activity SETFA ([10]; 62.5 ppm): 95% | Preemergence herbicidal activity ECHCG ([11]; 70 g/Ha): 20% | Preemergence herbicidal activity XANST ([12]; 70 g/Ha): 0% | Preemergence herbicidal activity IPOHE ([13]; 70 g/Ha): 10% | Preemergence herbicidal activity ALOMY ([14]; 70 g/Ha): 100% | Preemergence herbicidal activity ABUTH ([15]; 70 g/Ha): 0% | Preemergence herbicidal activity AVEFA (wild oats (Avena fatua) [16]; 70 g/Ha): 70% | Preemergence herbicidal activity DIGSA ([17]; 70 g/Ha): 40% | Preemergence herbicidal activity SORBI ([18]; 70 g/Ha): 95% | Preemergence herbicidal activity EPHHL ([19]; 70 g/Ha): 20% | Preemergence herbicidal activity AMARE ([20]; 70 g/Ha): 100% | Preemergence herbicidal activity SETFA ([21]; 70 g/Ha): 100%
